Experimental data published in publication PMC3243762 (Clinical cancer research : an official journal of the …, 2011).
“And” between values parts separate entries of the source, which are not always exact repeats. Equal values may be shown once. Read-outs that look alike come from different tables or passages of the source.

Tests used:
[1] = Human radiation dosimetry estimates
[2] = tested on: PSMA+ PC3 PIP and PSMA− PC3 flu xenografts; conditions: for Biodistribution, Bladder (empty) / Biodistribution, Blood / Biodistribution, Bone / Biodistribution, Heart / Biodistribution, Kidney / Biodistribution, Liver / Biodistribution, Lung / Biodistribution, Muscle / Biodistribution, PSMA+ PIP tumor / Biodistribution, PSMA− flu tumor / Biodistribution, Pancreas / Biodistribution, Spleen / Biodistribution, Stomach / Biodistribution, lrg. Intest / Biodistribution, sm. Intest: iv, n = 4
[3] = human source organ, from mouse data

With O=C(O)CCC(NC(=O)NC(CCCCNC(=O)c1ccc([18F])nc1)C(=O)O)C(=O)O (centres unmarked) [[^18F]DCFPyL, 2-(3-{1-Carboxy-5-[(6-[^18F]fluoro-pyridine-3-carbonyl)-amino]-pentyl}-ureido)-pentanedioic acid] the “Absorbed dose, Total body” value ([1]; estimated human) was 5.71E-03 mGy/MBq, the Effective dose ([1]; estimated human) was 1.36E-02 mSv/MBq and the Effective dose equivalent ([1]; estimated human) was 1.80E-02 mSv/MBq. For the same compound, the “Absorbed dose, Adrenals” value ([1]; estimated human target organ) was 6.46E-03 mGy/MBq, the “Absorbed dose, Brain” value ([1]; estimated human target organ) was 4.84E-03 mGy/MBq and the “Absorbed dose, Breasts” value ([1]; estimated human target organ) was 3.97E-03 mGy/MBq. The “Absorbed dose, Gallbladder wall” value ([1]; estimated human target organ) was 6.48E-03 mGy/MBq, the “Absorbed dose, Heart wall” value ([1]; estimated human target organ) was 3.26E-03 mGy/MBq and the “Absorbed dose, Kidneys” value ([1]; estimated human target organ) was 0.05 mGy/MBq and 4.81E-02 mGy/MBq. For the same compound, the “Absorbed dose, Liver” value ([1]; estimated human target organ) was 7.38E-03 mGy/MBq, the “Absorbed dose, Lower large intestine wall” value ([1]; estimated human target organ) was 9.40E-03 mGy/MBq and the “Absorbed dose, Lungs” value ([1]; estimated human target organ) was 3.01E-03 mGy/MBq. For the same compound, the “Absorbed dose, Muscle” value ([1]; estimated human target organ) was 3.95E-03 mGy/MBq, the “Absorbed dose, Osteogenic cells” value ([1]; estimated human target organ) was 7.59E-03 mGy/MBq and the “Absorbed dose, Ovaries” value ([1]; estimated human target organ) was 9.06E-03 mGy/MBq. For the same compound, the “Absorbed dose, Pancreas” value ([1]; estimated human target organ) was 4.38E-03 mGy/MBq, the “Absorbed dose, Red marrow” value ([1]; estimated human target organ) was 5.35E-03 mGy/MBq and the “Absorbed dose, Skin” value ([1]; estimated human target organ) was 3.84E-03 mGy/MBq. The “Absorbed dose, Small intestine” value ([1]; estimated human target organ) was 7.53E-03 mGy/MBq, the “Absorbed dose, Spleen” value ([1]; estimated human target organ) was 6.57E-03 mGy/MBq and the “Absorbed dose, Stomach wall” value ([1]; estimated human target organ) was 5.27E-03 mGy/MBq. For the same compound, the “Absorbed dose, Testes” value ([1]; estimated human target organ) was 7.06E-03 mGy/MBq, the “Absorbed dose, Thymus” value ([1]; estimated human target organ) was 4.43E-03 mGy/MBq and the “Absorbed dose, Thyroid” value ([1]; estimated human target organ) was 4.45E-03 mGy/MBq. For the same compound, the “Absorbed dose, Upper large intestine wall” value ([1]; estimated human target organ) was 6.67E-03 mGy/MBq, the “Absorbed dose, Urinary bladder wall” value ([1]; estimated human target organ) was 0.15 mGy/MBq and 1.51E-01 mGy/MBq and the “Absorbed dose, Uterus” value ([1]; estimated human target organ) was 1.45E-02 mGy/MBq. For the same compound, the “Time-integrated activity coefficient, Urinary bladder contents” value ([1]; human source organ, dynamic voiding bladder model, one hour voiding interval) was 3.09E-01 MBq-h/MBq, the “Time-integrated activity coefficient, Heart wall” value [1, 3] was 3.97E-04 MBq-h/MBq and the “Time-integrated activity coefficient, Kidneys” value [1, 3] was 7.47E-02 MBq-h/MBq. The “Time-integrated activity coefficient, Liver” value [1, 3] was 4.09E-02 MBq-h/MBq, the “Time-integrated activity coefficient, Lower large intestine” value [1, 3] was 4.23E-04 MBq-h/MBq and the “Time-integrated activity coefficient, Lungs” value [1, 3] was 3.52E-03 MBq-h/MBq. For the same compound, the “Time-integrated activity coefficient, Muscle” value [1, 3] was 4.50E-02 MBq-h/MBq, the “Time-integrated activity coefficient, Pancreas” value [1, 3] was 1.48E-04 MBq-h/MBq and the “Time-integrated activity coefficient, Small intestine” value [1, 3] was 1.30E-03 MBq-h/MBq. The “Time-integrated activity coefficient, Spleen” value [1, 3] was 2.98E-03 MBq-h/MBq, the “Time-integrated activity coefficient, Stomach” value [1, 3] was 3.36E-04 MBq-h/MBq and the “Time-integrated activity coefficient, Upper large intestine” value [1, 3] was 4.23E-04 MBq-h/MBq. The “Time-integrated activity coefficient, Remainder” value ([1]; human, remainder of body, from mouse data) was 8.51E-01 MBq-h/MBq, the “Biodistribution, Bladder (empty)” value ([2]; 30 min pi) was 18.6± 18.1 % ID/g and the “Biodistribution, Blood” value ([2]; 30 min pi) was 1.53±0.19 % ID/g. For the same compound, the “Biodistribution, Bone” value ([2]; 30 min pi) was 0.82 ±0.16 % ID/g, the “Biodistribution, Heart” value ([2]; 30 min pi) was 0.68 ±0.07 % ID/g and the “Biodistribution, Kidney” value ([2]; 30 min pi) was 74.1 ±6.6 % ID/g. For the same compound, the “Biodistribution, Liver” value ([2]; 30 min pi) was 3.88 ±0.74 % ID/g, the “Biodistribution, Lung” value ([2]; 30 min pi) was 1.91 ±0.47 % ID/g and the “Biodistribution, Muscle” value ([2]; 30 min pi) was 0.39 ±0.05 % ID/g. The “Biodistribution, PSMA+ PIP tumor” value ([2]; 30 min pi) was 46.7 ±5.8 % ID/g, the “Biodistribution, PSMA− flu tumor” value ([2]; 30 min pi) was 1.17 ±0.41 % ID/g and the “Biodistribution, Pancreas” value ([2]; 30 min pi) was 1.02 ±0.53 % ID/g. For the same compound, the “Biodistribution, Spleen” value ([2]; 30 min pi) was 7.59 ±3.56 % ID/g, the “Biodistribution, Stomach” value ([2]; 30 min pi) was 1.50±1.12 % ID/g and the “Biodistribution, lrg. Intest” value ([2]; 30 min pi) was 0.73 ±0.04 % ID/g. For the same compound, the “Biodistribution, sm. Intest” value ([2]; 30 min pi) was 0.79 ±0.11 % ID/g, the “Biodistribution, Bladder (empty)” value ([2]; 60 min pi) was 9.88 ±4.92 % ID/g and the “Biodistribution, Blood” value ([2]; 60 min pi) was 0.24 ±0.05 % ID/g. The “Biodistribution, Bone” value ([2]; 60 min pi) was 0.42 ±0.15 % ID/g, the “Biodistribution, Heart” value ([2]; 60 min pi) was 0.20 ±0.11 % ID/g and the “Biodistribution, Kidney” value ([2]; 60 min pi) was 42.3 ±19.0 % ID/g. The “Biodistribution, Liver” value ([2]; 60 min pi) was 2.87 ±0.92 % ID/g, the “Biodistribution, Lung” value ([2]; 60 min pi) was 0.55 ±0.17 % ID/g and the “Biodistribution, Muscle” value ([2]; 60 min pi) was 0.61 ±0.92 % ID/g. For the same compound, the “Biodistribution, PSMA+ PIP tumor” value ([2]; 60 min pi) was 44.2 ±9.7 % ID/g, the “Biodistribution, PSMA− flu tumor” value ([2]; 60 min pi) was 0.36 ±0.14 % ID/g and the “Biodistribution, Pancreas” value ([2]; 60 min pi) was 0.26 ±0.13 % ID/g. The “Biodistribution, Spleen” value ([2]; 60 min pi) was 2.70 ±1.28 % ID/g, the “Biodistribution, Stomach” value ([2]; 60 min pi) was 0.35 ±0.34 % ID/g and the “Biodistribution, lrg. Intest” value ([2]; 60 min pi) was 0.40 ±0.17 % ID/g. For the same compound, the “Biodistribution, sm. Intest” value ([2]; 60 min pi) was 0.31 ±0.12 % ID/g, the “Biodistribution, Bladder (empty)” value ([2]; 120 min pi) was 6.44 ±4.42 % ID/g and the “Biodistribution, Blood” value ([2]; 120 min pi) was 0.43 ±0.37 % ID/g. For the same compound, the “Biodistribution, Bone” value ([2]; 120 min pi) was 0.33 ±0.08 % ID/g, the “Biodistribution, Heart” value ([2]; 120 min pi) was 0.06 ±0.01 % ID/g and the “Biodistribution, Kidney” value ([2]; 120 min pi) was 15.7 ±3.3 % ID/g. For the same compound, the “Biodistribution, Liver” value ([2]; 120 min pi) was 2.1 % ID/g, the “Biodistribution, Lung” value ([2]; 120 min pi) was 0.18 ±0.02 % ID/g and the “Biodistribution, Muscle” value ([2]; 120 min pi) was 0.04 ±0.00 % ID/g. The “Biodistribution, PSMA+ PIP tumor” value ([2]; 120 min pi) was 39.4 ±5.4 % ID/g, the “Biodistribution, PSMA− flu tumor” value ([2]; 120 min pi) was 0.11 ±0.02 % ID/g and the “Biodistribution, Pancreas” value ([2]; 120 min pi) was 0.08 ±0.00 % ID/g. The “Biodistribution, Spleen” value ([2]; 120 min pi) was 0.69 ±0.11 % ID/g, the “Biodistribution, Stomach” value ([2]; 120 min pi) was 0.08 ±0.03 % ID/g and the “Biodistribution, lrg. Intest” value ([2]; 120 min pi) was 0.12 ±0.05 % ID/g. For the same compound, the “Biodistribution, sm. Intest” value ([2]; 120 min pi) was 0.11 ±0.07 % ID/g, the “Biodistribution, Liver” value ([2]; 120 min pi, listed as [^18F]3) was 2.14±0.11 % ID/g and the “Biodistribution, Bladder (empty)” value ([2]; 240 min pi) was 1.54 ±1.79 % ID/g. The “Biodistribution, Blood” value ([2]; 240 min pi) was 0.03 ±0.01 % ID/g, the “Biodistribution, Bone” value ([2]; 240 min pi) was 0.43 ±0.06 % ID/g and the “Biodistribution, Heart” value ([2]; 240 min pi) was 0.02 ±0.00 % ID/g. The “Biodistribution, Liver” value ([2]; 240 min pi) was 1.80 ±0.39 % ID/g, the “Biodistribution, Lung” value ([2]; 240 min pi) was 0.06 ±0.00 % ID/g and the “Biodistribution, Muscle” value ([2]; 240 min pi) was 0.05 ±0.05 % ID/g. For the same compound, the “Biodistribution, PSMA+ PIP tumor” value ([2]; 240 min pi) was 36.6 ±4.3 % ID/g, the “Biodistribution, PSMA− flu tumor” value ([2]; 240 min pi) was 0.03 ±0.01 % ID/g and the “Biodistribution, Pancreas” value ([2]; 240 min pi) was 0.03 ±0.01 % ID/g. The “Biodistribution, Spleen” value ([2]; 240 min pi) was 0.23 ±0.09 % ID/g, the “Biodistribution, Stomach” value ([2]; 240 min pi) was 0.02 ±0.00 % ID/g and the “Biodistribution, lrg. Intest” value ([2]; 240 min pi) was 0.06 ±0.01 % ID/g. The “Biodistribution, sm. Intest” value ([2]; 240 min pi) was 0.05 ±0.01 % ID/g, the “Biodistribution, Kidney” value ([2]; 240 min pi, listed as [^18F]3) was 7.42 ±0.89 % ID/g and the Bone uptake ([2]; at all time points) was less than 1 % ID/g. The Non-target tissue uptake ([2]; at or after 1 h post-injection) was “minimal non-target tissue uptake” and the “Decrease of PSMA+ PC3 PIP xenograft uptake” value ([2]; from 30 min pi over the ensuing 4 h) was “about 10%”.
